Results reported in PubChem BioAssay (NCI).
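GI50: concentration for 50% inhibition of growth. TGI marks complete inhibition of growth.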

Key:
Experiment in all cases: growth of human tumour cells (NCI), 384-well format
786-0 renal = test system: 786-0 renal
A498 renal = test system: A498 renal
A549 NSCLC = test system: A549 NSCLC
ACHN renal = test system: ACHN renal
CAKI-1 renal = test system: CAKI-1 renal
CCRF-CEM leukemia = test system: CCRF-CEM leukemia
COLO 205 colon = test system: COLO 205 colon
EKVX NSCLC = test system: EKVX NSCLC
HCC-2998 colon = test system: HCC-2998 colon
HL-60(TB) leukemia = test system: HL-60(TB) leukemia
HOP-62 NSCLC = test system: HOP-62 NSCLC
IGROV1 ovarian = test system: IGROV1 ovarian
K-562 leukemia = test system: K-562 leukemia
LOX IMVI melanoma = test system: LOX IMVI melanoma
M14 melanoma = test system: M14 melanoma
MALME-3M melanoma = test system: MALME-3M melanoma
MCF7 breast = test system: MCF7 breast
MDA-MB-231 breast = test system: MDA-MB-231 breast
MDA-MB-435 melanoma = test system: MDA-MB-435 melanoma
MDA-MB-468 breast = test system: MDA-MB-468 breast
NCI-H226 lung = test system: NCI-H226 lung
NCI-H322M lung = test system: NCI-H322M lung
NCI-H460 NSCLC = test system: NCI-H460 NSCLC
NCI-H522 lung = test system: NCI-H522 lung
NCI/ADR-RES ovarian = test system: NCI/ADR-RES ovarian
OVCAR-3 ovarian = test system: OVCAR-3 ovarian
OVCAR-4 ovarian = test system: OVCAR-4 ovarian
OVCAR-5 ovarian = test system: OVCAR-5 ovarian
OVCAR-8 ovarian = test system: OVCAR-8 ovarian
PC-3 prostate = test system: PC-3 prostate
RPMI-8226 leukemia = test system: RPMI-8226 leukemia
RXF 393 renal = test system: RXF 393 renal
SF-295 CNS = test system: SF-295 CNS
SF-539 CNS = test system: SF-539 CNS
SK-MEL-2 melanoma = test system: SK-MEL-2 melanoma
SK-MEL-28 melanoma = test system: SK-MEL-28 melanoma
SK-MEL-5 melanoma = test system: SK-MEL-5 melanoma
SK-OV-3 ovarian = test system: SK-OV-3 ovarian
SN12C renal = test system: SN12C renal
SNB-19 CNS = test system: SNB-19 CNS
SNB-75 CNS = test system: SNB-75 CNS
SR leukemia = test system: SR leukemia
T-47D breast = test system: T-47D breast
TK-10 renal = test system: TK-10 renal
U251 glioblastoma = test system: U251 glioblastoma
UACC-257 melanoma = test system: UACC-257 melanoma
UO-31 renal = test system: UO-31 renal

Structure (SMILES): CC(C)n1c(=O)n(C)c2cnc3cc(F)c(-c4ccc(OCCCN5CCCCC5)nc4)cc3c21
- GI50 ([…]-0 renal): > 77.4 µM
- TGI (786-0 renal): > 100 µM
- GI50 (A498 renal): > 73.4 µM
- TGI (A498 renal): > 100 µM
- GI50 (A549 NSCLC): > 100 µM
- TGI (A549 NSCLC): > 100 µM
- GI50 (ACHN renal): > 60.2 µM
- TGI (ACHN renal): > 100 µM
- GI50 (CAKI-1 renal): 16.7 µM
- TGI (CAKI-1 renal): > 95.8 µM
- GI50 (CCRF-CEM leukemia): 10.1 µM
- TGI (CCRF-CEM leukemia): > 46.7 µM
- GI50 (COLO 205 colon): > 100 µM
- TGI (COLO 205 colon): > 100 µM
- GI50 (EKVX NSCLC): 11.6 µM
- TGI (EKVX NSCLC): > 100 µM
- GI50 (HCC-2998 colon): 30.5 µM
- TGI (HCC-2998 colon): > 80.3 µM
- GI50 (HL-60(TB) leukemia): 11.8 µM
- TGI (HL-60(TB) leukemia): 47 µM
- GI50 (HOP-62 NSCLC): > 33.2 µM
- TGI (HOP-62 NSCLC): > 100 µM
- GI50 (IGROV1 ovarian): > 100 µM
- TGI (IGROV1 ovarian): > 100 µM
- GI50 (K-562 leukemia): 4.93 µM
- TGI (K-562 leukemia): > 46.8 µM
- GI50 (LOX IMVI melanoma): 72.5 µM
- TGI (LOX IMVI melanoma): > 100 µM
- GI50 (M14 melanoma): > 75.7 µM
- TGI (M14 melanoma): > 100 µM
- GI50 (MALME-3M melanoma): > 100 µM
- TGI (MALME-3M melanoma): > 100 µM
- GI50 (MCF7 breast): > 56.4 µM
- TGI (MCF7 breast): > 100 µM
- GI50 (MDA-MB-231 breast): 36.3 µM
- TGI (MDA-MB-231 breast): > 100 µM
- GI50 (MDA-MB-435 melanoma): > 100 µM
- TGI (MDA-MB-435 melanoma): > 100 µM
- GI50 (MDA-MB-468 breast): 24.8 µM
- TGI (MDA-MB-468 breast): > 100 µM
- GI50 (NCI-H226 lung): 14.3 µM
- TGI (NCI-H226 lung): > 100 µM
- GI50 (NCI-H322M lung): > 100 µM
- TGI (NCI-H322M lung): > 100 µM
- GI50 (NCI-H460 NSCLC): 18.6 µM
- TGI (NCI-H460 NSCLC): > 100 µM
- GI50 (NCI-H522 lung): 20.8 µM
- TGI (NCI-H522 lung): > 82 µM
- GI50 (NCI/ADR-RES ovarian): > 100 µM
- TGI (NCI/ADR-RES ovarian): > 100 µM
- GI50 (OVCAR-3 ovarian): 38.9 µM
- TGI (OVCAR-3 ovarian): > 100 µM
- GI50 (OVCAR-4 ovarian): > 100 µM
- TGI (OVCAR-4 ovarian): > 100 µM
- GI50 (OVCAR-5 ovarian): > 100 µM
- TGI (OVCAR-5 ovarian): > 100 µM
- GI50 (OVCAR-8 ovarian): > 43.4 µM
- TGI (OVCAR-8 ovarian): > 100 µM
- GI50 (PC-3 prostate): 19.6 µM
- TGI (PC-3 prostate): > 100 µM
- GI50 (RPMI-8226 leukemia): 6.13 µM
- TGI (RPMI-8226 leukemia): 42.1 µM
- GI50 (RXF 393 renal): > 63.4 µM
- TGI (RXF 393 renal): > 100 µM
- GI50 (SF-295 CNS): > 100 µM
- TGI (SF-295 CNS): > 100 µM
- GI50 (SF-539 CNS): > 84.1 µM
- TGI (SF-539 CNS): > 100 µM
- GI50 (SK-MEL-2 melanoma): 35.2 µM
- TGI (SK-MEL-2 melanoma): > 70 µM
- GI50 (SK-MEL-28 melanoma): > 100 µM
- TGI (SK-MEL-28 melanoma): > 100 µM
- GI50 (SK-MEL-5 melanoma): > 38.4 µM
- TGI (SK-MEL-5 melanoma): > 100 µM
- GI50 (SK-OV-3 ovarian): > 62.5 µM
- TGI (SK-OV-3 ovarian): > 100 µM
- GI50 (SN12C renal): 25.8 µM
- TGI (SN12C renal): > 100 µM
- GI50 (SNB-19 CNS): > 95.5 µM
- TGI (SNB-19 CNS): > 100 µM
- GI50 (SNB-75 CNS): 20.6 µM
- TGI (SNB-75 CNS): > 100 µM
- GI50 (SR leukemia): 7.14 µM
- TGI (SR leukemia): 19.4 µM
- GI50 (T-47D breast): > 48.5 µM
- TGI (T-47D breast): > 100 µM
- GI50 (TK-10 renal): 51.7 µM
- TGI (TK-10 renal): > 100 µM
- GI50 (U251 glioblastoma): > 70.8 µM
- TGI (U251 glioblastoma): > 100 µM
- GI50 (UACC-257 melanoma): 36.3 µM
- TGI (UACC-257 melanoma): > 100 µM
- GI50 (UO-31 renal): 83.8 µM
- TGI (UO-31 renal): > 100 µM

Structure (SMILES): CS(=O)(=O)c1ccc(Oc2cc(F)cc(C#N)c2)c2c1[C@H](O)C(F)(F)C2
- GI50 ([…]-0 renal): > 100 µM
- TGI (786-0 renal): > 100 µM
- GI50 (A498 renal): > 100 µM
- TGI (A498 renal): > 100 µM
- GI50 (A549 NSCLC): > 100 µM
- TGI (A549 NSCLC): > 100 µM
- GI50 (ACHN renal): > 100 µM
- TGI (ACHN renal): > 100 µM
- GI50 (CAKI-1 renal): > 78.9 µM
- TGI (CAKI-1 renal): > 100 µM
- GI50 (CCRF-CEM leukemia): > 100 µM
- TGI (CCRF-CEM leukemia): > 100 µM
- GI50 (COLO 205 colon): > 100 µM
- TGI (COLO 205 colon): > 100 µM
- GI50 (EKVX NSCLC): > 100 µM
- TGI (EKVX NSCLC): > 100 µM
- GI50 (HCC-2998 colon): > 100 µM
- TGI (HCC-2998 colon): > 100 µM
- GI50 (HL-60(TB) leukemia): > 66 µM
- TGI (HL-60(TB) leukemia): > 100 µM
- GI50 (HOP-62 NSCLC): > 100 µM
- TGI (HOP-62 NSCLC): > 100 µM
- GI50 (IGROV1 ovarian): > 100 µM
- TGI (IGROV1 ovarian): > 100 µM
- GI50 (K-562 leukemia): > 100 µM
- TGI (K-562 leukemia): > 100 µM
- GI50 (LOX IMVI melanoma): > 100 µM
- TGI (LOX IMVI melanoma): > 100 µM
- GI50 (M14 melanoma): > 100 µM
- TGI (M14 melanoma): > 100 µM
- GI50 (MALME-3M melanoma): > 100 µM
- TGI (MALME-3M melanoma): > 100 µM
- GI50 (MCF7 breast): > 100 µM
- TGI (MCF7 breast): > 100 µM
- GI50 (MDA-MB-231 breast): > 100 µM
- TGI (MDA-MB-231 breast): > 100 µM
- GI50 (MDA-MB-435 melanoma): > 100 µM
- TGI (MDA-MB-435 melanoma): > 100 µM
- GI50 (MDA-MB-468 breast): > 100 µM
- TGI (MDA-MB-468 breast): > 100 µM
- GI50 (NCI-H226 lung): > 100 µM
- TGI (NCI-H226 lung): > 100 µM
- GI50 (NCI-H322M lung): > 100 µM
- TGI (NCI-H322M lung): > 100 µM
- GI50 (NCI-H460 NSCLC): > 100 µM
- TGI (NCI-H460 NSCLC): > 100 µM
- GI50 (NCI-H522 lung): > 100 µM
- TGI (NCI-H522 lung): > 100 µM
- GI50 (NCI/ADR-RES ovarian): > 100 µM
- TGI (NCI/ADR-RES ovarian): > 100 µM
- GI50 (OVCAR-3 ovarian): > 100 µM
- TGI (OVCAR-3 ovarian): > 100 µM
- GI50 (OVCAR-4 ovarian): > 100 µM
- TGI (OVCAR-4 ovarian): > 100 µM
- GI50 (OVCAR-5 ovarian): > 100 µM
- TGI (OVCAR-5 ovarian): > 100 µM
- GI50 (OVCAR-8 ovarian): > 100 µM
- TGI (OVCAR-8 ovarian): > 100 µM
- GI50 (PC-3 prostate): > 100 µM
- TGI (PC-3 prostate): > 100 µM
- GI50 (RPMI-8226 leukemia): > 100 µM
- TGI (RPMI-8226 leukemia): > 100 µM
- GI50 (RXF 393 renal): > 100 µM
- TGI (RXF 393 renal): > 100 µM
- GI50 (SF-295 CNS): > 100 µM
- TGI (SF-295 CNS): > 100 µM
- GI50 (SF-539 CNS): > 100 µM
- TGI (SF-539 CNS): > 100 µM
- GI50 (SK-MEL-2 melanoma): > 100 µM
- TGI (SK-MEL-2 melanoma): > 100 µM
- GI50 (SK-MEL-28 melanoma): > 100 µM
- TGI (SK-MEL-28 melanoma): > 100 µM
- GI50 (SK-MEL-5 melanoma): > 100 µM
- TGI (SK-MEL-5 melanoma): > 100 µM
- GI50 (SK-OV-3 ovarian): > 100 µM
- TGI (SK-OV-3 ovarian): > 100 µM
- GI50 (SN12C renal): > 100 µM
- TGI (SN12C renal): > 100 µM
- GI50 (SNB-19 CNS): > 100 µM
- TGI (SNB-19 CNS): > 100 µM
- GI50 (SNB-75 CNS): > 100 µM
- TGI (SNB-75 CNS): > 100 µM
- GI50 (SR leukemia): > 73.6 µM
- TGI (SR leukemia): > 100 µM
- GI50 (T-47D breast): > 100 µM
- TGI (T-47D breast): > 100 µM
- GI50 (TK-10 renal): > 100 µM
- TGI (TK-10 renal): > 100 µM
- GI50 (U251 glioblastoma): > 100 µM
- TGI (U251 glioblastoma): > 100 µM
- GI50 (UACC-257 melanoma): > 100 µM
- TGI (UACC-257 melanoma): > 100 µM
- GI50 (UO-31 renal): > 100 µM
- TGI (UO-31 renal): > 100 µM
